Laboratory results taken from PMC10296061, “Inhibition of the Mitochondrial Carnitine/Acylcarnitine Carrier by Itaconate through Irreversible Binding to Cysteine 136: Possible Pathophysiological Implications” (Biomolecules, 2023).

Target: T1, CAC C23V/C58V/C89S/C155V/C283S mutant (Rattus norvegicus, UniProt P97521, C155V/C23V/C283S/C58V/C89S)
T1 construct: made in house; host or cells: E. coli C0214
T1 sequence (P97521 1-301 C23V/C58V/C89S/C155V/C283S): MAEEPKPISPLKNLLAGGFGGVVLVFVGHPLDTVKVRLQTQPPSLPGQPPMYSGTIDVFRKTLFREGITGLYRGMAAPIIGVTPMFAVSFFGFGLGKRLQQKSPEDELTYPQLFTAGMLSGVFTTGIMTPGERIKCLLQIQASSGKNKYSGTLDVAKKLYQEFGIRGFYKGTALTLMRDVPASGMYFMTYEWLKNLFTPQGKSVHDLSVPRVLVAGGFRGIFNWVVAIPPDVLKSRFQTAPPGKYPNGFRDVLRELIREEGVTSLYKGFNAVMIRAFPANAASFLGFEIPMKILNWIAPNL
Test: Transport assay in proteoliposomes, CAC mutant containing the sole C136
Type: biochemical
Settings: read-out: IC50 for itaconate inhibition
Description: As previously described, the pMW7-WTratCAC recombinant plasmid was used for over-expressing the rat CAC [22]. The overlap extension method was used to introduce the mutations; in the main time, NdeI and HindIII restriction sites were also added using appropriate primers. The PCR products were purified by the QIAEX II Gel Extraction Kit (QIAGEN) and digested with NdeI and HindIII and then ligated into the pMW7. All mutations were verified by DNA sequencing. The resulting plasmid constructs were transformed into E. coli C0214. Overexpression, inclusion body fraction preparation, and purification of the CAC proteins were performed as previously described. […]
To test the transport activity of the CAC, 550 μL of proteoliposomes was passed through a Sephadex G-75 column to remove the external substrate. […] Transport rates were measured in 10 min, i.e., within the initial linear range of the time course, at 25 °C. After terminating the transport reaction, the external substrate was removed by chromatography on the Sephadex G-75 column, and the intraliposomal radioactivity was measured. […]
Figure 3 Identification of residue responsible for itaconate inhibition. […] Transport activity of the WT (○), C136A (●), C155A (Δ), C23V/C58V/C89S/C155V/C283S (▲), and C23V/C58V/C89S/C136V/C155V/C283S (□) was measured by adding 0.1 mM [^3H]carnitine after treatment by itaconate at the indicated concentrations. […]

Work on `C=C(CC(=O)O)C(=O)O` [itaconate] yielded an IC50 of 4 ± 0.14 mM.
